The text below walks through data of PMC8445441, “Elucidating the mechanism by which synthetic helper peptides sensitize Pseudomonas aeruginosa to multiple antibiotics” (PLoS Pathogens, 2021).

Assay [1] relates to P. aeruginosa PAO1. In words: microbe, parasite or virus in culture. The following applies: for MICa: the MIC of antibiotics: antibiotic alone. As for the experimental part:
(§1) The MIC tests were performed in triplicate using broth microdilution in accordance with Clinical and Laboratory Standards Institute (CLSI) recommendations (http://iacld.ir/DL/public/CLSI-2018-M100-S28.pdf). Briefly, drugs were two-fold diluted in MHB and mixed with an equal volume of bacterial suspensions containing approximately 1 × 10^6 CFU/mL in 96-well microliter plate. After 18 h incubation at 37 °C, the MIC values were defined as the lowest concentrations of antibiotics with no visible growth of bacteria. […] Otherwise, 1/4 MIC of the peptide was used in the combination. […] If needed, membrane compounds PG, PE, PC, CL or LPS, or membrane stabilizers MgCl2 or CaCl2, or efflux pumps inhibitor PAβN were added to the broth medium to clarify the effect of other substances on the synergy between peptide and antibiotics. All the tests were performed in triplicate.
The fractional inhibitory concentration (FIC) indices were calculated using the previously described formula FICI = FICa + FICb = MICac/MICa + MICbc/MICb. The FICI was interpreted according to EUCAST [65] as follows: synergistic, FICI≤0.5; additive, 0.5<FICI≤1; indifferent, 1<FICI<2; antagonistic, FICI ≥2. For the FICI calculations, twice the highest concentration tested was used in the cases where the MIC was not reached.

Assay [2] deals with clinical P. aeruginosa isolates. In words: microbe, parasite or virus in culture. The note with it: Pseudomonas aeruginosa, 18 h, antibiotic alone. As for the experimental part: The bacterial strains, primers and plasmids used in this study are listed in S5 Table. […] Bacteria were cultured in LB medium or cation-adjusted Muller-Hinton broth (CA-MHB) at 37 °C with agitation at 220 rpm. All the antibiotics and chemical compounds used in this study were purchased from Sigma-Aldrich.
as §1

The mark [3] stands for this setting: PAO1, peptide + azithromycin, twice the highest concentration used where MIC not reached.
Where [4] appears, read: peptide alone, PAO1, broth microdilution in MHB, 18 h, 37 °C, triplicate.
Where [5] appears, read: S3 Table, PAO1, antibiotic + 2 μM D-11.
[6] abbreviates: S3 Table, PAO1, antibiotic + 4 μM D-11.
Where [7] appears, read: PAO1, peptide + Azithromycin, higher peptide concentration line.
Setting [8] is: PAO1, peptide + Azithromycin, lower peptide concentration line.
Setting [9] is: PAO1, peptide + Clarithromycin, higher peptide concentration line.
The mark [10] stands for this setting: PAO1, peptide + Clarithromycin, lower peptide concentration line.
The mark [11] stands for this setting: PAO1, peptide + Erythromycin, higher peptide concentration line.
[12] abbreviates: PAO1, peptide + Erythromycin, lower peptide concentration line.
The mark [13] stands for this setting: PAO1, peptide + Spiramycin, higher peptide concentration line.
Setting [14] is: PAO1, peptide + Spiramycin, lower peptide concentration line.
Where [15] appears, read: PAO1, peptide + Telithromycin, higher peptide concentration line.
Setting [16] is: PAO1, peptide + Telithromycin, lower peptide concentration line.

Like-named read-outs stand apart in the source and are kept apart here. Non-standard residues stand in square brackets, D forms with d. Residues, ends and D or L forms follow the SMILES beside them. No end group written: not given here. *: point of attachment. βNA = c1ccc2cc(N*)ccc2c1

As for RRLFRRILRWL-NH2 [RW-BP100], the FICI in assay [1] (setting [3]) turned out to be 1.250. Also, the “MICb: the MIC of the peptide” value in assay [1] (setting [4]) was 8 µM.

Take `CN(C)[C@@H]1C(O)=C(C(N)=O)C(=O)[C@@]2(O)C(O)=C3C(=O)c4c(O)cccc4[C@@](C)(O)[C@H]3C[C@@H]12` [Tetracycline]: the MIC in assay [2] (read-out: Antibiotic sensibility (MIC) of clinical P. aeruginosa isolate AUMC-Pa-2, strain AUMC-Pa-2) came to 64 µM; in assay [2] (read-out: Antibiotic sensibility (MIC) of clinical P. aeruginosa isolate AUMC-Pa-3, strain AUMC-Pa-3), 64 µM; in assay [2] (read-out: Antibiotic sensibility (MIC) of clinical P. aeruginosa isolate AUMC-Pa-5, strain AUMC-Pa-5), 64 µM; in assay [2] (read-out: Antibiotic sensibility (MIC) of clinical P. aeruginosa isolate AUMC-Pa-6, strain AUMC-Pa-6), 64 µM; in assay [2] (read-out: Antibiotic sensibility (MIC) of clinical P. aeruginosa isolate HM-214, strain HM-214), 64 µM; in assay [2] (read-out: Antibiotic sensibility (MIC) of clinical P. aeruginosa isolate NR-31040, strain NR-31040) it was 64 µM. For the same compound, the MIC in assay [2] (read-out: Antibiotic sensibility (MIC) of clinical P. aeruginosa isolate NR-31041, strain NR-31041) was found to be 64 µM.

Take `CC[C@@H](C)[C@@H](NC(=O)[C@@H](CCCNC(=N)N)NC(=O)[C@@H](CCCNC(=N)N)NC(=O)[C@@H](Cc1ccccc1)NC(=O)[C@@H](CC(C)C)NC(=O)[C@@H](CCCNC(=N)N)NC(=O)[C@H](N)CCCNC(=N)N)C(=O)N[C@H](CC(C)C)C(=O)N[C@H](CCCNC(=N)N)C(=O)N[C@H](Cc1c[nH]c2ccccc12)C(=O)N[C@H](CC(C)C)C(N)=O` [D-RW-BP100] (H-[dR][dR][dL][dF][dR][dR][dI][dL][dR][dW][dL]-NH2): the FICI in assay [1] (setting [3]) is recorded as 1.250. The “MICb: the MIC of the peptide” value in assay [1] (setting [4]) worked out at 8 µM.

As to VDKPPYLPRPRPPRRIYNR-NH2 [Oncocin], the FICI in assay [1] (setting [3]) is 1.125. For the same compound, the “MICb: the MIC of the peptide” value in assay [1] (setting [4]) is greater than 32 µM.

For the compound NGVQPKYK [PEP9], the “MICb: the MIC of the peptide” value in assay [1] (PAO1, 18 h) is greater than 32 µM.

For the compound `Cc1onc(-c2ccccc2)c1C(=O)N[C@@H]1C(=O)N2[C@@H]1SC(C)(C)[C@@H]2C(=O)O` [Oxacillin], the figures for the FICI in assay [1] (setting [5]) and in assay [1] (setting [6]) were 1.063 and 1.125, respectively.

On to `CCO/N=C(\C(=O)N[C@@H]1C(=O)N2C(C(=O)[O-])=C(Sc3nc(-c4cc[n+](C)cc4)cs3)CS[C@H]12)c1nsc(N)n1` [Ceftaroline], for which the FICI in assay [1] (setting [5]) was 1.063; in assay [1] (setting [6]) it was 1.125. Besides, the “MICac: the MIC for the antibiotic in the combination” value in assay [1] (S3 Table, PAO1, with 2 μM D-11) is given as 128/128 μM; in assay [1] (S3 Table, PAO1, with 4 μM D-11) it was 128/128 μM. Moreover, in assay [1] (S3 Table, PAO1), the “MICa: the MIC of antibiotics” value is reported as 128/128 μM.

Take RIVQWIKKWLR-NH2 [Peptide L-11-R5W]: the FICI in assay [1] (setting [3]) came out at 1.250. The “MICb: the MIC of the peptide” value in assay [1] (setting [4]) amounted to 4 µM.

Take RLLFRKIRRLKR [EC5]: the FICI was less than 0.125 in assay [1] (setting [7]); less than 0.281 in assay [1] (setting [8]); less than 0.313 in assay [1] (setting [9]); less than 0.281 in assay [1] (setting [10]); less than 0.313 in assay [1] (setting [11]); less than 0.281 in assay [1] (setting [12]). Also, the FICI in assay [1] (setting [13]) was 1.063; in assay [1] (setting [14]), 1.031; in assay [1] (setting [15]) it was less than 0.313; in assay [1] (setting [16]), less than 0.531; in assay [1] (setting [3]) it was 0.188. The “MICb: the MIC of the peptide” value is greater than 128 µM in assay [1] (S1 Table, peptide alone, PAO1) and greater than 32 µM in assay [1] (setting [4]). For the same compound, the “MIC of the peptide” value in assay [1] (peptide alone, PAO1) is no less than 32 µM.

Take `CC1=C(C(=O)O)N2C(=O)[C@@H](NC(=O)[C@H](N)c3ccccc3)[C@H]2SC1` [Cephalexin]: the FICI in assay [1] (setting [5]) worked out at 1.063; in assay [1] (setting [6]), 1.125.

As to `CC[C@@H](C)[C@@H](NC(=O)[C@H](N)CCCNC(=N)N)C(=O)N[C@@H](C(=O)N[C@H](CCC(N)=O)C(=O)N[C@H](CCCNC(=N)N)C(=O)N[C@@H](C(=O)N[C@H](CCCNC(=N)N)C(=O)N[C@H](CCCNC(=N)N)C(=O)N[C@H](Cc1c[nH]c2ccccc12)C(=O)N[C@H](CC(C)C)C(=O)N[C@H](CCCNC(=N)N)C(N)=O)[C@H](C)CC)C(C)C` [D-11-k(r)] (H-[dR][dI][dV][dQ][dR][dI][dR][dR][dW][dL][dR]-NH2), the FICI amounted to 0.156 in assay [1] (setting [7]); 0.188 in assay [1] (setting [8]); 0.156 in assay [1] (setting [9]); 0.125 in assay [1] (setting [10]); 0.188 in assay [1] (setting [11]); 0.188 in assay [1] (setting [12]). Besides, the FICI in assay [1] (setting [13]) is 1.125; in assay [1] (setting [14]), 1.063; in assay [1] (setting [15]) it was 0.188; in assay [1] (setting [16]) it was 0.188; in assay [1] (setting [3]), 0.156. Further, in assay [1] (S1 Table, peptide alone, PAO1), the “MICb: the MIC of the peptide” value is 64 µM.

As to KIAKVALKALK [PEP10], the FICI in assay [1] (setting [3]) is listed as 1.125. Also, in assay [1] (setting [4]), the “MICb: the MIC of the peptide” value was greater than 32 µM.

As to GNNRPVYIPQPRPPHPRL [Api1b], the FICI in assay [1] (setting [3]) came to 1.125. Further, in assay [1] (setting [4]), the “MICb: the MIC of the peptide” value is greater than 32 µM.

LKGLKGLLKGL [ADP-1c]: the “MICb: the MIC of the peptide” value in assay [1] (PAO1, 18 h) is greater than 32 µM.

On to KRIVQRIKKWLR-NH2 [KR-12-a2], for which, in assay [1] (PAO1, 18 h), the “MIC of the peptide” value was no less than 32 µM and the “MICb: the MIC of the peptide” value turned out to be 32 µM.

Consider `CC[C@@H](C)[C@@H](NC(=O)[C@@H](CC(C)C)NC(=O)[C@@H](CCCNC(=N)N)NC(=O)[C@@H](Cc1c[nH]c2ccccc12)NC(=O)[C@H](N)CC(C)C)C(=O)N[C@H](CCCNC(=N)N)C(=O)N[C@H](CCCNC(=N)N)C(=O)N[C@H](Cc1ccccc1)C(=O)N[C@H](CC(C)C)C(=O)N[C@H](CCCNC(=N)N)C(=O)N[C@H](CCCNC(=N)N)C(N)=O` [D-RW-BP100R] (H-[dL][dW][dR][dL][dI][dR][dR][dF][dL][dR][dR]-NH2), for which the FICI in assay [1] (setting [3]) worked out at 1.250. Also, the “MICb: the MIC of the peptide” value in assay [1] (setting [4]) worked out at 4 µM.

`N=C(N)c1ccc(OCCCCCOc2ccc(C(=N)N)cc2)cc1` [Pentamidine]: the FICI in assay [1] (setting [5]) is reported as 1.063; in assay [1] (setting [6]), 1.125. For the same compound, the “MICac: the MIC for the antibiotic in the combination” value in assay [1] (S3 Table, PAO1, with 2 μM D-11) was 128/128 μM; in assay [1] (S3 Table, PAO1, with 4 μM D-11) it was 128/128 μM. In addition, the “MICa: the MIC of antibiotics” value in assay [1] (S3 Table, PAO1) is listed as 128/128 μM.

On to RIWVIWRR-NH2 [Bac8c], for which the FICI in assay [1] (setting [3]) amounted to 1.250. In assay [1] (setting [4]), the “MICb: the MIC of the peptide” value was determined as 4 µM.

As to “VDKGSYLPRPTPPRPIYNRN-NH2 [Pyrrhocoricin]”, in assay [1] (setting [3]), the FICI came to 1.125. In assay [1] (setting [4]), the “MICb: the MIC of the peptide” value was greater than 32 µM.

RIVQRIKKWLR-NH2 [Peptide L-11]: in assay [1] (PAO1, 18 h), the “MIC of the peptide” value is no less than 32 µM and the “MICb: the MIC of the peptide” value was 32 µM.

In the case of GIGKHVGKALKGLKGLLKGLGEC [ADP-1], the “MICb: the MIC of the peptide” value in assay [1] (setting [4]) was found to be 16 µM.

On to KHVGKALKGLK [ADP-1b], for which the “MICb: the MIC of the peptide” value in assay [1] (PAO1, 18 h) is greater than 32 µM.

In the case of LKGLKGLLKGLGEC [ADP-1a], the “MICb: the MIC of the peptide” value in assay [1] (PAO1, 18 h) was greater than 32 µM.

For the compound `CC[C@@H](C)[C@@H](NC(=O)[C@@H](CCCCN)NC(=O)[C@@H](CCCCN)NC(=O)[C@@H](Cc1c[nH]c2ccccc12)NC(=O)[C@@H](CC(C)C)NC(=O)[C@H](N)CCCNC(=N)N)C(=O)N[C@H](CCCNC(=N)N)C(=O)N[C@H](CCC(N)=O)C(=O)N[C@@H](C(=O)N[C@@H](C(=O)N[C@H](CCCNC(=N)N)C(=O)N[C@H](CCCCN)C(N)=O)[C@H](C)CC)C(C)C` [Peptide D-11R] (H-[dR][dL][dW][dK][dK][dI][dR][dQ][dV][dI][dR][dK]-NH2), the “MICb: the MIC of the peptide” value in assay [1] (PAO1, 18 h) came to 32 µM.

On to `NC(N)=NCCC[C@H](NC(=O)[C@@H](N)Cc1ccccc1)C(=O)Nc1ccc2ccccc2c1` [PAβN] (H-Phe-Arg-βNA), for which the “reduction of the MIC of azithromycin by PAβN” value was 64 fold in assay [1] (PAO1, in the absence of D-11) and “two” in assay [1] (PAO1, in the presence of D-11, higher concentration of PAβN).

In the case of `Cc1ncc([N+](=O)[O-])n1CCO` [Metronidazole], the FICI in assay [1] (setting [5]) turned out to be 1.063; in assay [1] (setting [6]) it was 1.125.
